Measurements: ChEMBL document CHEMBL1201862, “PubChem BioAssay data set” (2004)
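96-well plates; 48 h exposure; 5 concentrations. Endpoints by linear interpolation between flanking doses. Not reached: highest tested concentration assigned. Abbreviation: GI50, concentration required for 50% inhibition of growth.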 The source made the active and inactive calls. Cut-off read from the data, not from the text of the source: active = GI50 up to about 1.1 µM and inactive = higher.

Assays:
Assay in all cases: NCI anticancer screen, dose series, 48 h
DU-145 = test system: DU-145
MOLT-4 = test system: MOLT-4
TK-10 = test system: TK-10
SR = test system: SR
SK-MEL-28 = test system: SK-MEL-28
A498 = test system: A498
MDA-N = test system: MDA-N
SK-OV-3 = test system: SK-OV-3
HOP-62 = test system: HOP-62
SW-620 = test system: SW-620
NCI/ADR-RES = test system: NCI/ADR-RES
MDA-MB-231 = test system: MDA-MB-231
CAKI-1 = test system: CAKI-1
RPMI-8226 = test system: RPMI-8226
HL-60 = test system: HL-60
NCI-H226 = test system: NCI-H226
BT-549 = test system: BT-549
Hs-578T = test system: Hs-578T
RXF 393 = test system: RXF 393
SN12C = test system: SN12C
IGROV-1 = test system: IGROV-1
U-251 = test system: U-251
ACHN = test system: ACHN
SNB-75 = test system: SNB-75
SNB-19 = test system: SNB-19
CCRF-CEM = test system: CCRF-CEM
SK-MEL-2 = test system: SK-MEL-2
HCT-15 = test system: HCT-15
SF-295 = test system: SF-295
OVCAR-8 = test system: OVCAR-8
OVCAR-5 = test system: OVCAR-5
NCI-H23 = test system: NCI-H23
MCF7 = test system: MCF7
NCI-H460 = test system: NCI-H460
OVCAR-4 = test system: OVCAR-4
SK-MEL-5 = test system: SK-MEL-5
COLO 205 = test system: COLO 205
LOX IMVI = test system: LOX IMVI
EKVX = test system: EKVX
HT-29 = test system: HT-29
UO-31 = test system: UO-31
OVCAR-3 = test system: OVCAR-3
HCT-116 = test system: HCT-116
A549 = test system: A549
M14 = test system: M14
PC-3 = test system: PC-3
UACC-62 = test system: UACC-62
KM12 = test system: KM12
SF-268 = test system: SF-268
T47D = test system: T47D
K562 = test system: K562
NCI-H522 = test system: NCI-H522
Malme-3M = test system: Malme-3M
786-0 = test system: 786-0
UACC-257 = test system: UACC-257
MDA-MB-435 = test system: MDA-MB-435
HCC 2998 = test system: HCC 2998
HOP-92 = test system: HOP-92
SF-539 = test system: SF-539

With CCOC(=O)c1cc(C2CCN(c3ccccc3)C2=O)c(C(=O)/C=C(/C)N)[nH]1 (stereo not given) the GI50 (DU-145) was 54.5 µM (inactive), the GI50 (MOLT-4) was 39.6 µM (inactive) and the GI50 (TK-10) was 28.2 µM (inactive). The GI50 (SR) was > 100 µM (inactive), the GI50 (SK-MEL-28) was 29.1 µM (inactive) and the GI50 (A498) was 57 µM (inactive). For the same molecule, the GI50 (MDA-N) was 71.4 µM (inactive), the GI50 (SK-OV-3) was 16.6 µM (inactive) and the GI50 (HOP-62) was 18.1 µM (inactive). The GI50 (SW-620) was 45.8 µM (inactive), the GI50 (NCI/ADR-RES) was 44 µM (inactive) and the GI50 (MDA-MB-231) was 56.4 µM (inactive). The GI50 (CAKI-1) was 21.3 µM (inactive), the GI50 (RPMI-8226) was > 100 µM (inactive) and the GI50 (HL-60) was > 100 µM (inactive). For the same molecule, the GI50 (NCI-H226) was 20.5 µM (inactive), the GI50 (BT-549) was > 100 µM (inactive) and the GI50 (Hs-578T) was 14.9 µM (inactive). For the same molecule, the GI50 (RXF 393) was 37.9 µM (inactive), the GI50 (SN12C) was 21.8 µM (inactive) and the GI50 (IGROV-1) was 33.7 µM (inactive). The GI50 (U-251) was 15 µM (inactive), the GI50 (ACHN) was 40.6 µM (inactive) and the GI50 (SNB-75) was 8.05 µM (inactive). For the same molecule, the GI50 (SNB-19) was 21.3 µM (inactive), the GI50 (CCRF-CEM) was > 100 µM (inactive) and the GI50 (SK-MEL-2) was > 100 µM (inactive). The GI50 (HCT-15) was greater than 100 µM, the GI50 (SF-295) was 15.9 µM (inactive) and the GI50 (OVCAR-8) was 28.3 µM (inactive). The GI50 (OVCAR-5) was 46.3 µM (inactive), the GI50 (NCI-H23) was 92.3 µM (inactive) and the GI50 (MCF7) was 54.6 µM (inactive). For the same molecule, the GI50 (NCI-H460) was 33.2 µM (inactive), the GI50 (OVCAR-4) was 42.5 µM (inactive) and the GI50 (SK-MEL-5) was 40.8 µM (inactive). The GI50 (COLO 205) was > 100 µM (inactive), the GI50 (LOX IMVI) was 28 µM (inactive) and the GI50 (EKVX) was 23.6 µM (inactive). The GI50 (HT-29) was 12.9 µM (inactive), the GI50 (UO-31) was 49.2 µM (inactive) and the GI50 (OVCAR-3) was 39.6 µM (inactive). The GI50 (HCT-116) was 12.7 µM (inactive), the GI50 (A549) was 25.6 µM (inactive) and the GI50 (M14) was 65 µM (inactive). The GI50 (PC-3) was 39.5 µM (inactive), the GI50 (UACC-62) was 16.2 µM (inactive) and the GI50 (KM12) was > 100 µM (inactive). For the same molecule, the GI50 (SF-268) was 30.2 µM (inactive), the GI50 (T47D) was 32.8 µM (inactive) and the GI50 (K562) was 68.2 µM (inactive). The GI50 (NCI-H522) was 18.5 µM (inactive), the GI50 (Malme-3M) was 17.6 µM (inactive) and the GI50 (786-0) was 10.2 µM (inactive). For the same molecule, the GI50 (UACC-257) was 94.8 µM (inactive), the GI50 (MDA-MB-435) was > 100 µM (inactive) and the GI50 (HCC 2998) was > 100 µM (inactive).

With Nc1ccc(Oc2ccc(C3(c4ccc(Oc5ccc(N)c(O)c5)cc4)C4CC5CC(C4)CC3C5)cc2)cc1O the GI50 (DU-145) was 1.82 µM (inactive), the GI50 (MOLT-4) was 1.66 µM (inactive) and the GI50 (TK-10) was 2.12 µM (inactive). The GI50 (SR) was 1.17 µM (inactive), the GI50 (SK-MEL-28) was 1.84 µM (inactive) and the GI50 (A498) was 5.74 µM (inactive). For the same molecule, the GI50 (MDA-N) was 2.03 µM (inactive), the GI50 (SK-OV-3) was 2.45 µM (inactive) and the GI50 (HOP-62) was 2.5 µM (inactive). For the same molecule, the GI50 (SW-620) was 1.77 µM (inactive), the GI50 (NCI/ADR-RES) was 2.35 µM (inactive) and the GI50 (MDA-MB-231) was 1.82 µM (inactive). The GI50 (CAKI-1) was 2.47 µM (inactive), the GI50 (RPMI-8226) was 1.97 µM (inactive) and the GI50 (HL-60) was 2.11 µM (inactive). For the same molecule, the GI50 (NCI-H226) was 1.83 µM (inactive), the GI50 (BT-549) was 1.66 µM (inactive) and the GI50 (Hs-578T) was 2.24 µM (inactive). The GI50 (RXF 393) was 1.73 µM (inactive), the GI50 (SN12C) was 1.9 µM (inactive) and the GI50 (IGROV-1) was 1.75 µM (inactive). The GI50 (U-251) was 1.7 µM (inactive), the GI50 (ACHN) was 1.82 µM (inactive) and the GI50 (SNB-19) was 2.4 µM (inactive). For the same molecule, the GI50 (CCRF-CEM) was 2.82 µM (inactive), the GI50 (SK-MEL-2) was 1.86 µM (inactive) and the GI50 (HCT-15) was 1.73 µM. For the same molecule, the GI50 (SF-295) was 3.06 µM (inactive), the GI50 (OVCAR-8) was 1.7 µM (inactive) and the GI50 (OVCAR-5) was 2.35 µM (inactive). The GI50 (NCI-H23) was 1.91 µM (inactive), the GI50 (MCF7) was 1.67 µM (inactive) and the GI50 (NCI-H460) was 1.73 µM (inactive). The GI50 (OVCAR-4) was 2.43 µM (inactive), the GI50 (HOP-92) was 2.92 µM (inactive) and the GI50 (SK-MEL-5) was 1.58 µM (inactive). The GI50 (COLO 205) was 0.484 µM (active), the GI50 (LOX IMVI) was 1.81 µM (inactive) and the GI50 (EKVX) was 2.2 µM (inactive). The GI50 (HT-29) was 1.64 µM (inactive), the GI50 (UO-31) was 1.92 µM (inactive) and the GI50 (OVCAR-3) was 1.56 µM (inactive). For the same molecule, the GI50 (HCT-116) was 1.5 µM (inactive), the GI50 (A549) was 1.81 µM (inactive) and the GI50 (M14) was 1.71 µM (inactive). The GI50 (PC-3) was 1.68 µM (inactive), the GI50 (UACC-62) was 2.69 µM (inactive) and the GI50 (KM12) was 1.91 µM (inactive). The GI50 (SF-268) was 1.53 µM (inactive), the GI50 (T47D) was 3.27 µM (inactive) and the GI50 (K562) was 2.04 µM (inactive). For the same molecule, the GI50 (NCI-H522) was 1.73 µM (inactive), the GI50 (Malme-3M) was 2.3 µM (inactive) and the GI50 (786-0) was 1.82 µM (inactive). For the same molecule, the GI50 (UACC-257) was 2.12 µM (inactive), the GI50 (SF-539) was 1.12 µM (active) and the GI50 (MDA-MB-435) was 2.02 µM (inactive). For the same molecule, the GI50 (HCC 2998) was 1.65 µM (inactive).
